Data: patent publication US7553864B2, “Compounds for the treatment of inflammatory disorders and microbial diseases” (Schering Corporation, priority 2005, dated 2009)

Each molecule was assayed on LpxC enzyme (assay: LpxC enzyme assay (RapidFire high-throughput mass spectrometry)). Conditions: concentration 0.10 (unit not given).
Assay type: biochemical
Procedure, shortened: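 0.2 nM enzyme with 1.0 μM UDP-3-O-(R-3-hydroxymyristoyl)-N-acetylglucosamine in 25 mM HEPES pH 7.3, 150 mM NaCl, 2.0 mM DTT, 0.01% BSA, 2% DMSO; 60 min at room temperature, quenched with HCl. Substrate and product quantified by RapidFire mass spectrometry; percent conversion gives percent inhibition versus DMSO control.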

Row | Structure (SMILES) | LpxC enzyme assay rating (% inhibition at indicated concentrations)
1 | O=C([C@H](O)[C@@H](O)C(=O)N1CCC(c2ccc3ccccc3c2)CC1)N1CCCC1 [Compound 70] | C (less than 10% inhibition)
2 | O=C(Nc1ccc(Oc2ccccc2)cc1)[C@H](O)[C@@H](O)C(=O)N1CCCC1 [Compound 71] | B (10-30% inhibition)
3 | CN1CCN(c2ccc(NC(=O)[C@H](O)[C@@H](O)C(=O)N3CCCC3)cc2)CC1 [Compound 72] | B (10-30% inhibition)
4 | CN(C)CCOc1ccc(NC(=O)[C@H](O)[C@@H](O)C(=O)N2CCCC2)cc1 [Compound 73] | C (less than 10% inhibition)
5 | CN(C)CCCOc1ccc(NC(=O)[C@H](O)[C@@H](O)C(=O)N2CCCC2)cc1 [Compound 74] | B (10-30% inhibition)
6 | O=C(Nc1ccc(-n2cccn2)cc1)[C@H](O)[C@@H](O)C(=O)N1CCCC1 [Compound 75] | C (less than 10% inhibition)

Same assay, conditions: concentration 0.20 (unit not given)

Row | Structure (SMILES) | LpxC enzyme assay rating (% inhibition at indicated concentrations)
7 | O=C([C@H](O)[C@@H](O)C(=O)N1CCC(c2ccc3ccccc3c2)CC1)N1CCCC1 [Compound 70] | C (less than 10% inhibition)
8 | O=C(Nc1ccc(Oc2ccccc2)cc1)[C@H](O)[C@@H](O)C(=O)N1CCCC1 [Compound 71] | C (less than 10% inhibition)
9 | CN1CCN(c2ccc(NC(=O)[C@H](O)[C@@H](O)C(=O)N3CCCC3)cc2)CC1 [Compound 72] | C (less than 10% inhibition)
10 | CN(C)CCOc1ccc(NC(=O)[C@H](O)[C@@H](O)C(=O)N2CCCC2)cc1 [Compound 73] | B (10-30% inhibition)
11 | CN(C)CCCOc1ccc(NC(=O)[C@H](O)[C@@H](O)C(=O)N2CCCC2)cc1 [Compound 74] | C (less than 10% inhibition)
12 | O=C(Nc1ccc(-n2cccn2)cc1)[C@H](O)[C@@H](O)C(=O)N1CCCC1 [Compound 75] | C (less than 10% inhibition)

Same assay, conditions: concentration 0.39 (unit not given)

Row | Structure (SMILES) | LpxC enzyme assay rating (% inhibition at indicated concentrations)
13 | O=C([C@H](O)[C@@H](O)C(=O)N1CCC(c2ccc3ccccc3c2)CC1)N1CCCC1 [Compound 70] | C (less than 10% inhibition)
14 | O=C(Nc1ccc(Oc2ccccc2)cc1)[C@H](O)[C@@H](O)C(=O)N1CCCC1 [Compound 71] | B (10-30% inhibition)
15 | CN1CCN(c2ccc(NC(=O)[C@H](O)[C@@H](O)C(=O)N3CCCC3)cc2)CC1 [Compound 72] | C (less than 10% inhibition)
16 | CN(C)CCOc1ccc(NC(=O)[C@H](O)[C@@H](O)C(=O)N2CCCC2)cc1 [Compound 73] | C (less than 10% inhibition)
17 | CN(C)CCCOc1ccc(NC(=O)[C@H](O)[C@@H](O)C(=O)N2CCCC2)cc1 [Compound 74] | C (less than 10% inhibition)
18 | O=C(Nc1ccc(-n2cccn2)cc1)[C@H](O)[C@@H](O)C(=O)N1CCCC1 [Compound 75] | C (less than 10% inhibition)

Same assay, conditions: concentration 0.78 (unit not given)

Row | Structure (SMILES) | LpxC enzyme assay rating (% inhibition at indicated concentrations)
19 | O=C([C@H](O)[C@@H](O)C(=O)N1CCC(c2ccc3ccccc3c2)CC1)N1CCCC1 [Compound 70] | B (10-30% inhibition)
20 | O=C(Nc1ccc(Oc2ccccc2)cc1)[C@H](O)[C@@H](O)C(=O)N1CCCC1 [Compound 71] | B (10-30% inhibition)
21 | CN1CCN(c2ccc(NC(=O)[C@H](O)[C@@H](O)C(=O)N3CCCC3)cc2)CC1 [Compound 72] | C (less than 10% inhibition)
22 | CN(C)CCOc1ccc(NC(=O)[C@H](O)[C@@H](O)C(=O)N2CCCC2)cc1 [Compound 73] | B (10-30% inhibition)
23 | CN(C)CCCOc1ccc(NC(=O)[C@H](O)[C@@H](O)C(=O)N2CCCC2)cc1 [Compound 74] | C (less than 10% inhibition)
24 | O=C(Nc1ccc(-n2cccn2)cc1)[C@H](O)[C@@H](O)C(=O)N1CCCC1 [Compound 75] | B (10-30% inhibition)

Same assay, conditions: concentration 1.56 (unit not given)

Row | Structure (SMILES) | LpxC enzyme assay rating (% inhibition at indicated concentrations)
25 | O=C([C@H](O)[C@@H](O)C(=O)N1CCC(c2ccc3ccccc3c2)CC1)N1CCCC1 [Compound 70] | C (less than 10% inhibition)
26 | O=C(Nc1ccc(Oc2ccccc2)cc1)[C@H](O)[C@@H](O)C(=O)N1CCCC1 [Compound 71] | B (10-30% inhibition)
27 | CN1CCN(c2ccc(NC(=O)[C@H](O)[C@@H](O)C(=O)N3CCCC3)cc2)CC1 [Compound 72] | C (less than 10% inhibition)
28 | CN(C)CCOc1ccc(NC(=O)[C@H](O)[C@@H](O)C(=O)N2CCCC2)cc1 [Compound 73] | C (less than 10% inhibition)
29 | CN(C)CCCOc1ccc(NC(=O)[C@H](O)[C@@H](O)C(=O)N2CCCC2)cc1 [Compound 74] | B (10-30% inhibition)
30 | O=C(Nc1ccc(-n2cccn2)cc1)[C@H](O)[C@@H](O)C(=O)N1CCCC1 [Compound 75] | C (less than 10% inhibition)

Same assay, conditions: concentration 3.13 (unit not given)

Row | Structure (SMILES) | LpxC enzyme assay rating (% inhibition at indicated concentrations)
31 | O=C([C@H](O)[C@@H](O)C(=O)N1CCC(c2ccc3ccccc3c2)CC1)N1CCCC1 [Compound 70] | C (less than 10% inhibition)
32 | O=C(Nc1ccc(Oc2ccccc2)cc1)[C@H](O)[C@@H](O)C(=O)N1CCCC1 [Compound 71] | B (10-30% inhibition)
33 | CN1CCN(c2ccc(NC(=O)[C@H](O)[C@@H](O)C(=O)N3CCCC3)cc2)CC1 [Compound 72] | C (less than 10% inhibition)
34 | CN(C)CCOc1ccc(NC(=O)[C@H](O)[C@@H](O)C(=O)N2CCCC2)cc1 [Compound 73] | C (less than 10% inhibition)
35 | CN(C)CCCOc1ccc(NC(=O)[C@H](O)[C@@H](O)C(=O)N2CCCC2)cc1 [Compound 74] | B (10-30% inhibition)
36 | O=C(Nc1ccc(-n2cccn2)cc1)[C@H](O)[C@@H](O)C(=O)N1CCCC1 [Compound 75] | B (10-30% inhibition)

Same assay, conditions: concentration 6.25 (unit not given)

Row | Structure (SMILES) | LpxC enzyme assay rating (% inhibition at indicated concentrations)
37 | O=C([C@H](O)[C@@H](O)C(=O)N1CCC(c2ccc3ccccc3c2)CC1)N1CCCC1 [Compound 70] | C (less than 10% inhibition)
38 | O=C(Nc1ccc(Oc2ccccc2)cc1)[C@H](O)[C@@H](O)C(=O)N1CCCC1 [Compound 71] | C (less than 10% inhibition)
39 | CN1CCN(c2ccc(NC(=O)[C@H](O)[C@@H](O)C(=O)N3CCCC3)cc2)CC1 [Compound 72] | C (less than 10% inhibition)
40 | CN(C)CCOc1ccc(NC(=O)[C@H](O)[C@@H](O)C(=O)N2CCCC2)cc1 [Compound 73] | C (less than 10% inhibition)
41 | CN(C)CCCOc1ccc(NC(=O)[C@H](O)[C@@H](O)C(=O)N2CCCC2)cc1 [Compound 74] | C (less than 10% inhibition)
42 | O=C(Nc1ccc(-n2cccn2)cc1)[C@H](O)[C@@H](O)C(=O)N1CCCC1 [Compound 75] | B (10-30% inhibition)

Same assay, conditions: concentration 12.50 (unit not given)

Row | Structure (SMILES) | LpxC enzyme assay rating (% inhibition at indicated concentrations)
43 | O=C([C@H](O)[C@@H](O)C(=O)N1CCC(c2ccc3ccccc3c2)CC1)N1CCCC1 [Compound 70] | C (less than 10% inhibition)
44 | O=C(Nc1ccc(Oc2ccccc2)cc1)[C@H](O)[C@@H](O)C(=O)N1CCCC1 [Compound 71] | C (less than 10% inhibition)
45 | CN1CCN(c2ccc(NC(=O)[C@H](O)[C@@H](O)C(=O)N3CCCC3)cc2)CC1 [Compound 72] | C (less than 10% inhibition)
46 | CN(C)CCOc1ccc(NC(=O)[C@H](O)[C@@H](O)C(=O)N2CCCC2)cc1 [Compound 73] | C (less than 10% inhibition)
47 | CN(C)CCCOc1ccc(NC(=O)[C@H](O)[C@@H](O)C(=O)N2CCCC2)cc1 [Compound 74] | C (less than 10% inhibition)
48 | O=C(Nc1ccc(-n2cccn2)cc1)[C@H](O)[C@@H](O)C(=O)N1CCCC1 [Compound 75] | C (less than 10% inhibition)

Same assay, conditions: concentration 25 (unit not given)

Row | Structure (SMILES) | LpxC enzyme assay rating (% inhibition at indicated concentrations)
49 | O=C([C@H](O)[C@@H](O)C(=O)N1CCC(c2ccc3ccccc3c2)CC1)N1CCCC1 [Compound 70] | B (10-30% inhibition)
50 | O=C(Nc1ccc(Oc2ccccc2)cc1)[C@H](O)[C@@H](O)C(=O)N1CCCC1 [Compound 71] | C (less than 10% inhibition)
51 | CN1CCN(c2ccc(NC(=O)[C@H](O)[C@@H](O)C(=O)N3CCCC3)cc2)CC1 [Compound 72] | C (less than 10% inhibition)
52 | CN(C)CCOc1ccc(NC(=O)[C@H](O)[C@@H](O)C(=O)N2CCCC2)cc1 [Compound 73] | C (less than 10% inhibition)
53 | CN(C)CCCOc1ccc(NC(=O)[C@H](O)[C@@H](O)C(=O)N2CCCC2)cc1 [Compound 74] | C (less than 10% inhibition)
54 | O=C(Nc1ccc(-n2cccn2)cc1)[C@H](O)[C@@H](O)C(=O)N1CCCC1 [Compound 75] | C (less than 10% inhibition)

Same assay, conditions: concentration 50 (unit not given)

Row | Structure (SMILES) | LpxC enzyme assay rating (% inhibition at indicated concentrations)
55 | O=C([C@H](O)[C@@H](O)C(=O)N1CCC(c2ccc3ccccc3c2)CC1)N1CCCC1 [Compound 70] | C (less than 10% inhibition)
56 | O=C(Nc1ccc(Oc2ccccc2)cc1)[C@H](O)[C@@H](O)C(=O)N1CCCC1 [Compound 71] | C (less than 10% inhibition)
57 | CN1CCN(c2ccc(NC(=O)[C@H](O)[C@@H](O)C(=O)N3CCCC3)cc2)CC1 [Compound 72] | B (10-30% inhibition)
58 | CN(C)CCOc1ccc(NC(=O)[C@H](O)[C@@H](O)C(=O)N2CCCC2)cc1 [Compound 73] | C (less than 10% inhibition)
59 | CN(C)CCCOc1ccc(NC(=O)[C@H](O)[C@@H](O)C(=O)N2CCCC2)cc1 [Compound 74] | C (less than 10% inhibition)
60 | O=C(Nc1ccc(-n2cccn2)cc1)[C@H](O)[C@@H](O)C(=O)N1CCCC1 [Compound 75] | B (10-30% inhibition)
